Test results as given in paper PMC11406233 (Proceedings of the National Academy of Sciences of the …, 2024).
Where two headings read alike, the source gives them in different places.

Tests used:
[1] = tested on: SCoV2^WK521WT; experiment: microbe, parasite or virus in culture; assay type: cell-based; conditions: for EC50: Severe acute respiratory syndrome coronavirus 2, read-out: EC50 from cell-based assay
[2] = tested on: SCoV2^WK521WT; experiment: microbe, parasite or virus in culture; conditions: Severe acute respiratory syndrome coronavirus 2, VeroE6/TMPRSS2, read-out: EC50 from cell-based assay

Structure (SMILES) | EC50 [1] [nM] | EC50 [2] [nM] | Difference in the EC50 values of NIR and TKB245 [1] [fold]
COc1cccc2[nH]c(C(=O)N[C@@H](CC(C)C)C(=O)N[C@@H](C[C@@H]3CCNC3=O)C(=O)c3nc4ccccc4s3)cc12 [5h] | 200 ± 90 | 4100 | –
CC(C)(C)[C@H](NC(=O)C(F)(F)F)C(=O)N1C[C@H]2[C@@H]([C@H]1C(=O)N[C@@H](C[C@@H]1CCNC1=O)C(=O)c1nc3c(F)cccc3s1)C2(C)C [TKB245] | 1.5 | 330 | 34.7
CC(C)(C)[C@H](NC(=O)C(F)(F)F)C(=O)N1C[C@H]2[C@@H]([C@H]1C(=O)N[C@H](C#N)C[C@@H]1CCNC1=O)C2(C)C [nirmatrelvir, reference compound] | 52 | 1500 | –
